What was measured:
Assay type in all cases: cell-based
[1] = target: T1, thromboxane receptor (TPαR) (Homo sapiens, UniProt P21731); experiment: TPαR-mediated G14 activation at the PM, P63RG-RlucII BRET
T1 construct: host or cells: HEK293
T1 sequence (P21731 1-343): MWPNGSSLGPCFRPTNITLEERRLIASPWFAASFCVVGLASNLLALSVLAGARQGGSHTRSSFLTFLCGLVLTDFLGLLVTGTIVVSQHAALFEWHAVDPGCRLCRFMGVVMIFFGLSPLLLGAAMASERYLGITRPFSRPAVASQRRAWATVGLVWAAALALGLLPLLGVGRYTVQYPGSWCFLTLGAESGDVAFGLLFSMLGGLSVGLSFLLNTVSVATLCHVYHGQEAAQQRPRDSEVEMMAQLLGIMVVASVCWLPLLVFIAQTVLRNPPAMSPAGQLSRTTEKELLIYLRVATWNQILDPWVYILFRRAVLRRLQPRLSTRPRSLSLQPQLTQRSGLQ
Source text: (§1) FIGS. 6J-6M show DRCs of TPαR ligands on Gq (FIG. 6J), G11 (FIG. 6K), G14 (FIG. 6L) and G15 (FIG. 6M) activation at the PM using P63RG-Rlucll under the optimal conditions determined in FIGS. 6B-6E. HEK293 cells cotransfected with thromboxane receptor (TPαR), P63RG-Rlucll, rGFP-CAAX were stimulated with U46619, I-BOP, CTA2, U51605, I-SAP and SQ 29,558. Results were normalized and presented as % of I-BOP response (between n=3 and n=5) +/−SEM.
(§2) Transfection using Poly(ethylenimine) (PEI): Two days before the experiments, HEK293 cells were washed with PBS containing no calcium or magnesium, detached and transfected with the indicated plasmids using PEI as a transfecting agent (at a ratio of 3 to 1, PEI/DNA). Cells were then directly seeded in 96-well plates pre-treated or not with poly-L-ornithine hydrobromide at a density of 35 000 cells per well. All experiments read in the Spark 10M reader were performed using non-treated plates.
(§3) BRET measurements 48-hours post transfection, cells were washed twice with pre-warmed Tyrode's buffer (140 mM NaCl, 2.7 mM KCl, 1 mM CaCl2, 12 mM NaHCO3, 5.6 mM D-glucose, 0.5 mM MgCl2, 0.37 mM NaH2PO4, 25 mM HEPES, pH 7.4) before being stimulated with various concentrations of ligands at either room temperature (RT) or 37° C., as indicated. The cell-permeable substrate, coelenterazine Purple I was added at a final concentration of 1 μM in Tyrode's buffer for at least 6 min (at 37° C.) to 10min (at RT) before BRET measurements. Measurements were either taken on a Spark 10M reader (Tecan Life Sciences; donor: 360 nm/380 nm & acceptor: 505 nm/570 nm), a LB 941 multimode plate reader (Berthold Technologies; donor: 400/470-nm and acceptor: 515/520-nm filters) or a Synergy Neo (Biotek: (donor: 400/480 nm, acceptor: 515/530 nm). The BRET signal was determined by calculating the ratio of the light intensity emitted by the rGFP (acceptor) over the light intensity emitted by the Rlucll (donor). All the BRET measurements were performed at 37° C. in the Tristar reader (FIGS. 1-2M & FIGS. 2R-7F), at RT in a Spark 10M reader (FIGS. 2N-2Q & FIGS. 8B-8S) or at RT in a Synergy Neo (FIGS. 8T-8X).

[2] = target: T1, thromboxane receptor (TPαR); experiment: TPαR-mediated G12 activation at the PM, PDZRG-RlucII BRET
Source text: (§4) FIGS. 4D and 4E show DRCs of TPαR ligands on G12 (FIG. 4D) and 13 (FIG. 4E) activation at the PM using PDZRG-Rlucll. HEK293 cells cotransfected with thromboxane receptor (TPαR), PDZRG-Rlucll, rGFP-CAAX were stimulated with known full agonists (U46619, I-BOP, CTA2), with a partial agonist (U51605) and the antagonists I-SAP and SQ 29,558. Results were normalized and presented as % of I-BOP response (n=4) +/−SEM.
as §2, §3

[3] = target: T1, thromboxane receptor (TPαR); experiment: TPαR-mediated G13 activation at the PM, PDZRG-RlucII BRET
Source text: as §4, §2, §3

[4] = target: T1, thromboxane receptor (TPαR); experiment: TPαR-mediated Gq activation at the PM, P63RG-RlucII BRET
Source text: as §1, §2, §3

[5] = target: T1, thromboxane receptor (TPαR); experiment: TPαR-mediated G12 activation at the PM, P115RG-RlucII BRET
Source text: (§5) FIGS. 5B and 5C show DRCs of TPαR ligands on G12 (FIG. 5B) and G13 (FIG. 5C) activation at the PM using P115RG-Rlucll. HEK293 cells cotransfected with thromboxane receptor (TPαR), P115RG-Rlucll, rGFP-CAAX were stimulated with U46619, I-BOP, CTA2, U51605, I-SAP and SQ 29,558. Results were normalized and presented as % of I-BOP response (n=4) +/−SEM.
as §2, §3

[6] = target: T1, thromboxane receptor (TPαR); experiment: TPαR-mediated G15 activation at the PM, P63RG-RlucII BRET
Source text: as §1, §2, §3

[7] = target: T1, thromboxane receptor (TPαR); experiment: TPαR-mediated G11 activation at the PM, P63RG-RlucII BRET
Source text: as §1, §2, §3

[8] = target: T1, thromboxane receptor (TPαR); experiment: TPαR-mediated G13 activation at the PM, P115RG-RlucII BRET
Source text: as §5, §2, §3

[9] = target: T2, D3R (Homo sapiens, UniProt P35462); experiment: Gz activation by D3R, Rap1GAP (SSS-AAA)-RlucII translocation to PM (BRET)
T2 construct: expressed in transfected cells; host or cells: HEK293
Protocol: (§6) Cells were then directly seeded in 96-well plates pre-treated or not with poly-L-ornithine hydrobromide at a density of 35 000 cells per well. All experiments read in the Spark 10M reader were performed using non-treated plates.
(§7) BRET measurements 48-hours post transfection, cells were washed twice with pre-warmed Tyrode's buffer (140 mM NaCl, 2.7 mM KCl, 1 mM CaCl2, 12 mM NaHCO3, 5.6 mM D-glucose, 0.5 mM MgCl2, 0.37 mM NaH2PO4, 25 mM HEPES, pH 7.4) before being stimulated with various concentrations of ligands at either room temperature (RT) or 37° C., as indicated. The cell-permeable substrate, coelenterazine Purple I was added at a final concentration of 1 μM in Tyrode's buffer for at least 6 min (at 37° C.) to 10min (at RT) before BRET measurements.
(§8) Data Analysis. Estimation of the EC50 values were calculated using the GraphPad® Prism curve fitting program. The curves presented throughout this study, representing the best fits, and were also generated using this GraphPad® Prism program.

[10] = target: T3, Dopamine D4 receptor (D4R) (Homo sapiens, UniProt P21917); conditions: HEK293, Rap1GAP (SSS-AAA)-RlucII, rGFP-CAAX, Gz, read-out: EC50, Gz activation
T3 construct: signal peptide […]; host or cells: HEK293
T3 sequence (P21917 1-419): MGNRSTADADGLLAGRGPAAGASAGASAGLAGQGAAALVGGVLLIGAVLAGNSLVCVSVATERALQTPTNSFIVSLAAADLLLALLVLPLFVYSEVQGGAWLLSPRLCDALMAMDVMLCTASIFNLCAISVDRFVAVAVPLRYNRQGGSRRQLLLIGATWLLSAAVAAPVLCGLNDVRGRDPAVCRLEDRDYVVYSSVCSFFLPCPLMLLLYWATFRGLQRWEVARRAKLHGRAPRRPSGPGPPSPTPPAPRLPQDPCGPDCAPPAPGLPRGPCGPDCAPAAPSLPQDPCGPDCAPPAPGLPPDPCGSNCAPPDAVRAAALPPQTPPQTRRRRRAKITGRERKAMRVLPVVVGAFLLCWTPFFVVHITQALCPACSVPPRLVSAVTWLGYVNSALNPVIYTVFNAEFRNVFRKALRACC
Protocol: as §6, §7, §8

[11] = target: T4, D2R (Homo sapiens, UniProt P14416); experiment: Gz activation by D2R, Rap1GAP (SSS-AAA)-RlucII translocation to PM (BRET)
T4 construct: expressed in transfected cells; host or cells: HEK293
Protocol: as §6, §7, §8

[12] = target: T5, D1R (Homo sapiens, UniProt P21728); experiment: Gz activation by D1R, Rap1GAP (SSS-AAA)-RlucII translocation to PM (BRET)
T5 construct: expressed in transfected cells; host or cells: HEK293
Protocol: as §6, §7, §8

[13] = target: T6, D5R (Homo sapiens, UniProt P21918); experiment: Gz activation by D5R, Rap1GAP (SSS-AAA)-RlucII translocation to PM (BRET)
T6 construct: expressed in transfected cells; host or cells: HEK293
Protocol: as §6, §7, §8

T5 sequence (P21728 whole entry): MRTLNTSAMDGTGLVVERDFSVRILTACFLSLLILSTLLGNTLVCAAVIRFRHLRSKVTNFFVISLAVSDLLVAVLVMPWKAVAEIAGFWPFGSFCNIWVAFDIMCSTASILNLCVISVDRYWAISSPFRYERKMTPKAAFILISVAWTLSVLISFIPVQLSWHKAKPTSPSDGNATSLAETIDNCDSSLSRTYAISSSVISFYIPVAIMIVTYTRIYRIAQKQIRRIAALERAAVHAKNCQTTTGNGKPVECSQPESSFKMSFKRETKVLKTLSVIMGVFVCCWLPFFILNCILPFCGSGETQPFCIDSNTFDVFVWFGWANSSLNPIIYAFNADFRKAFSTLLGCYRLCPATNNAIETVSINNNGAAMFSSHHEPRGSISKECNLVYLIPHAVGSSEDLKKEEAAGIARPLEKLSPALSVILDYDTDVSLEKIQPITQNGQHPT
T2 sequence (P35462 whole entry): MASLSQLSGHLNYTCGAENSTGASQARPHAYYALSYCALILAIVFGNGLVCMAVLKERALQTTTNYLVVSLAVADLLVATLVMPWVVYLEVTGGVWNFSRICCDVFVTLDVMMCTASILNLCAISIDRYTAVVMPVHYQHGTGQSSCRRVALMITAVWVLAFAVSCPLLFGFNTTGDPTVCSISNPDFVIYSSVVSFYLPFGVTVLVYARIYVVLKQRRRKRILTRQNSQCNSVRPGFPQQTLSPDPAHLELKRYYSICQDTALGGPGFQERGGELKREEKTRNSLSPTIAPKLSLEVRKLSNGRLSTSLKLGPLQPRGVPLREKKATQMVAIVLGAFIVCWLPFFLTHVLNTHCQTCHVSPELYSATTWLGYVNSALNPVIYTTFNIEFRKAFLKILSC
T6 sequence (P21918 whole entry): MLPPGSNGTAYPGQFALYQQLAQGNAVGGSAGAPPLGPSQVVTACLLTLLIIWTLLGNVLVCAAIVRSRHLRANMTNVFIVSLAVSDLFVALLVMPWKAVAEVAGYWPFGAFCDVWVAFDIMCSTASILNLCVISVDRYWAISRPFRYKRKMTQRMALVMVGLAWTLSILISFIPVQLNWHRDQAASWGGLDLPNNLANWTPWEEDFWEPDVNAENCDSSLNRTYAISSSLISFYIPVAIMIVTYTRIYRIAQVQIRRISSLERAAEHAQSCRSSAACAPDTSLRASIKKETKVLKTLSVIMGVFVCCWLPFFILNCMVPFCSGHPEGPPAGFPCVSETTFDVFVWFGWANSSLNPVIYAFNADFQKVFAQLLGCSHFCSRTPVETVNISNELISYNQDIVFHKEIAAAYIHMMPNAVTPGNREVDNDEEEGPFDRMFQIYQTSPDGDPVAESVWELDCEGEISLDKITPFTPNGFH
T4 sequence (P14416 whole entry): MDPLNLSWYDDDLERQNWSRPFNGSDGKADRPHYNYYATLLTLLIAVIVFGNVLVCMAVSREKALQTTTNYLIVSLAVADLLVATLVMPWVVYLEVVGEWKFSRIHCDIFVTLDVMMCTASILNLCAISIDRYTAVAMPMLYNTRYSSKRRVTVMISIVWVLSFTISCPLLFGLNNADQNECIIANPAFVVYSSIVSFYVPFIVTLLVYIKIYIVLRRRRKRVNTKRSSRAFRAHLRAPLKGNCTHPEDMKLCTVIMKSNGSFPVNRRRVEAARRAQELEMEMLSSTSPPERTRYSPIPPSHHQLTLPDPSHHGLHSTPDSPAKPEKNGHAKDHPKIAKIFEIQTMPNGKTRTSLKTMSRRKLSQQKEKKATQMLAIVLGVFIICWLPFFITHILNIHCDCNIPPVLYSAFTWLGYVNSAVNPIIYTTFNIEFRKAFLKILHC

CCCCC[C@H](O)/C=C/[C@@H]1[C@@H](C/C=C\CCCC(=O)O)[C@H]2CO[C@@H]1C2 [U46619]
G14 activation, agonist character in words [1]: full agonists | G12 activation, agonist character in words [2]: full agonists | G13 activation, agonist character in words [3]: full agonists | Gq activation, agonist character in words [4]: full agonists | G12 activation, agonist character in words [5]: full agonists | G15 activation, agonist character in words [6]: full agonists | G11 activation, agonist character in words [7]: full agonists | G13 activation, agonist character in words [8]: full agonists

Cc1cccc(NC(=O)CN2CCC(c3ccccn3)CC2)c1 [A412,997]
EC50 ([9]; HEK293, Rap1GAP (SSS-AAA)-RlucII, rGFP-CAAX, Gz): 281 nM | EC50 [10]: 0.04 nM

O=C(O)CCC/C=C\C[C@@H]1[C@H](CNNC(=O)Nc2ccccc2)[C@H]2CC[C@@H]1O2 [SQ 29,558]
G14 activation, agonist character in words [1]: fail to induce significant activation | G12 activation, agonist character in words [2]: not acting as a TPαR agonist | G13 activation, agonist character in words [3]: not acting as a TPαR agonist | Gq activation, agonist character in words [4]: fail to induce significant activation | G12 activation, agonist character in words [5]: not acting as a TPαR agonist | G15 activation, agonist character in words [6]: fail to induce significant activation | G11 activation, agonist character in words [7]: fail to induce significant activation | G13 activation, agonist character in words [8]: not acting as a TPαR agonist

CCCCC[C@H](O)/C=C/[C@H]1CC2CC(C2)[C@@H]1C/C=C\CCCC(=O)O [CTA2]
G14 activation, agonist character in words [1]: full agonists | G12 activation, agonist character in words [2]: full agonists | G13 activation, agonist character in words [3]: full agonists | Gq activation, agonist character in words [4]: full agonists | G12 activation, agonist character in words [5]: full agonists | G15 activation, agonist character in words [6]: full agonists | G11 activation, agonist character in words [7]: full agonists | G13 activation, agonist character in words [8]: full agonists

COc1ccccc1N1CCN(CCN(C(=O)C2CCCCC2)c2ccccn2)CC1 [WAY-100635]
agonist properties (Gz activation), in words [9]: only showed agonist properties on D4R | agonist properties (Gz activation), in words [11]: only showed agonist properties on D4R | agonist properties (Gz activation), in words [12]: only showed agonist properties on D4R | agonist properties (Gz activation), in words [13]: only showed agonist properties on D4R

Cc1c(C2CCN(CCc3ccccc3)CC2)noc1-c1ccc(Cl)cc1 [L741,742]
agonist properties (Gz activation), in words [12]: did not show agonist nor inverse properties | agonist properties (Gz activation), in words [13]: did not show agonist nor inverse properties

O=C(O)CCC/C=C\C[C@@H]1[C@@H](/C=C/[C@@H](O)COc2ccc(I)cc2)[C@H]2CC[C@@H]1O2 [I-BOP]
G14 activation, agonist character in words [1]: full agonists | G12 activation, agonist character in words [2]: full agonists | G13 activation, agonist character in words [3]: full agonists | Gq activation, agonist character in words [4]: full agonists | G12 activation, agonist character in words [5]: full agonists | G15 activation, agonist character in words [6]: full agonists | G11 activation, agonist character in words [7]: full agonists | G13 activation, agonist character in words [8]: full agonists

CC1(C)[C@@H]2C[C@H](NS(=O)(=O)c3ccc(I)cc3)[C@@H](C/C=C\CCCC(=O)O)[C@H]1C2 [I-SAP]
G14 activation, agonist character in words [1]: fail to induce significant activation | G12 activation, agonist character in words [2]: fails to induce significant G12 activation | G13 activation, efficacy ([3]; normalized to I-BOP response): 53 % of Max | Gq activation, agonist character in words [4]: fail to induce significant activation | Gq activation, efficacy ([4]; rGFP-CAAX): 7 % of I-BOP max response | G12 activation, agonist character in words [5]: neutral | G15 activation, agonist character in words [6]: fail to induce significant activation | G11 activation, agonist character in words [7]: fail to induce significant activation | G13 activation, efficacy ([8]; normalized to I-BOP response): 19 % of Max

From patent publication US20200256869A1, “SYSTEMS AND METHODS FOR THE ASSESSMENT OF G-PROTEIN ACTIVATION” (UNIVERSITÉ DE MONTRÉAL, priority 2017, published 2020)
